# Test results published in patent US11034692B1 (Genentech, Inc., priority 2017, dated 2021).
# Molecular target: HPK1 (Homo sapiens, UniProt Q92918)
# Experiment: HPK1 Lantha Binding Assay ("Lanth")
# Settings: Table B1-1, read-out: HPK1 Ki (μM) (Lanth)
# In short: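 TR-FRET tracer displacement with 2 nM GST-tagged kinase, 2 nM Eu-anti-GST antibody and 15 nM Tracer222 at 23 C. Enzyme–antibody preincubated 1 h with compound, then tracer added for 1 h; 340 nm excitation, 615/665 nm emission. Ki from Morrison fit over an 11-point 5-fold dilution.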
# Chain of HPK1 (Q92918 whole entry, looked up): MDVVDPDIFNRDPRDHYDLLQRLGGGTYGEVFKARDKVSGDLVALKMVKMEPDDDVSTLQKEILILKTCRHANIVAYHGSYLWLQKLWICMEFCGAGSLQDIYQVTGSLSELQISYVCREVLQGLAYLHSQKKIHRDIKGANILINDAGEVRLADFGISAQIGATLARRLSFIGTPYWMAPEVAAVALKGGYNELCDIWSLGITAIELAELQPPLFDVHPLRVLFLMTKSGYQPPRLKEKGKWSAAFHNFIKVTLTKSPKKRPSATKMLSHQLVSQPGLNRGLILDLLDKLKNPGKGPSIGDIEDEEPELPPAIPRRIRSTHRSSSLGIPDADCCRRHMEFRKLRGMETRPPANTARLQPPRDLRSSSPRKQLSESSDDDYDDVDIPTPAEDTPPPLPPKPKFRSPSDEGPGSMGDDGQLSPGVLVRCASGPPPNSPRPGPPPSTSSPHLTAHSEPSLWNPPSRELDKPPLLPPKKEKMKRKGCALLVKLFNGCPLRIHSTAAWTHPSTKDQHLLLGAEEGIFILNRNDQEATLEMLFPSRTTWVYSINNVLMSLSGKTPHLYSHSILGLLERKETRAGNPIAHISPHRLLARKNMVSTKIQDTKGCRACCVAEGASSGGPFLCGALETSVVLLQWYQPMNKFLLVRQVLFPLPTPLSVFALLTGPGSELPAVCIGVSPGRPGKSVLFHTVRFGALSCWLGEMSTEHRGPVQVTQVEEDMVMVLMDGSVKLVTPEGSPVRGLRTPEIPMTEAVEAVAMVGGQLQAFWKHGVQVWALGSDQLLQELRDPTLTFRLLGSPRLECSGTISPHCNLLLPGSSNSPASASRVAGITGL
row,Structure (SMILES),Ki [nM]
1,"Cc1cc(C(N)=O)ccc1-c1cc2cc(NC(=O)[C@@H]3C[C@@H]3F)ncc2c(N)n1 (racemic) [Compound 48, (±)-4-(1-amino-6-((cis)-2-fluorocyclopropanecarboxamido)-2,7-naphthyridin-3-yl)-3-methylbenzamide]",10.3
2,"Cc1c(-c2cc3cc(NC(=O)[C@@H]4C[C@@H]4F)ncc3c(N)n2)cnn1C (racemic) [Compound 2, (±)-cis-N-(8-amino-6-(1,5-dimethyl-1H-pyrazol-4-yl)-2,7-naphthyridin-3-yl)-2-fluorocyclopropanecarboxamide]",1.56
3,"Cc1cc(C(=O)O)ncc1-c1cc2cc(NC(=O)[C@H]3C[C@@H]3c3cnn(C)c3)ncc2c(N)n1 (racemic) [Compound 342, (±)-trans-5-(1-amino-6-((1S,2S)-2-(1-methyl-1H-pyrazol-4-yl)cyclopropane-1-carboxamido)-2,7-naphthyridin-3-yl)-4-methylpicolinic acid]",1.43
4,"CC(C)c1[nH]ncc1-c1cc2cc(NC(=O)[C@@H]3C[C@H]3C#N)ncc2c(N)n1 (racemic) [Compound 114, (±)-trans-N-(8-amino-6-(5-isopropyl-1H-pyrazol-4-yl)-2,7-naphthyridin-3-yl)-2-cyanocyclopropane-1-carboxamide]",2.24
5,"Cc1nn(C)c(C)c1-c1cc2cc(NC(=O)[C@@H]3C[C@@H]3F)ncc2c(N)n1 (racemic) [Compound 3, (±)-cis-N-(8-amino-6-(1,3,5-trimethyl-1H-pyrazol-4-yl)-2,7-naphthyridin-3-yl)-2-fluorocyclopropanecarboxamide]",5.14
6,"CC(C)(O)Cc1ccncc1-c1cc2cc(NC(=O)[C@H]3C[C@@H]3C#N)ncc2c(N)n1 (racemic) [Compound 225, (+/−)-trans-N-(8-amino-6-(4-(2-hydroxy-2-methylpropyl)pyridin-3-yl)-2,7-naphthyridin-3-yl)-2-cyanocyclopropanecarboxamide]",84.2
7,"Cc1cc2c(cc1-c1cc3cc(NC(=O)[C@H]4C[C@@H]4C#N)ncc3c(N)n1)oc(=O)n2C (racemic) [Compound 142, (±)-trans-N-(8-amino-6-(3,5-dimethyl-2-oxo-2,3-dihydrobenzo[d]oxazol-6-yl)-2,7-naphthyridin-3-yl)-2-cyanocyclopropanecarboxamide]",1.4
8,"Nc1nc(-c2cnccc2C2CC2)cc2cc(NC(=O)[C@@H]3C[C@@H]3F)ncc12 (racemic) [Compound 46, (±)-cis-N-(8-amino-6-(4-cyclopropylpyridin-3-yl)-2,7-naphthyridin-3-yl)-2-fluorocyclopropanecarboxamide]",1.52
9,"CCc1ccncc1-c1cc2cc(NC(=O)[C@H]3C[C@@H]3COC)ncc2c(N)n1 (racemic) [Compound 53, (±)-trans-N-(8-amino-6-(4-ethylpyridin-3-yl)-2,7-naphthyridin-3-yl)-2-(methoxymethyl) cyclopropane carboxamide]",0.736
10,"Cc1ccncc1-c1nc(N)c2cnc(NC(=O)C3CC3)cc2c1C1=CC(O)CC1 (racemic) [Compound 204, N-(8-amino-5-(3-hydroxycyclopent-1-enyl)-6-(4-methylpyridin-3-yl)-2,7-naphthyridin-3-yl)cyclopropanecarboxamide]",0.99
11,"N#C[C@H]1C[C@@H]1C(=O)Nc1cc2cc(-c3cn[nH]c3C(F)(F)F)nc(N)c2cn1 (racemic) [Compound 132, (±)-trans-N-[8-amino-6-[5-(trifluoromethyl)-1H-pyrazol-4-yl]-2,7-naphthyridin-3-yl]-2-cyano-cyclopropanecarboxamide]",6.5
12,"Cc1ccncc1-c1cc2cc(Nc3cnn([C@H]4CCN(C5COC5)C[C@@H]4O)c3)ncc2c(N)n1 (racemic) [Compound 220, (+/−)-trans-4-(4-(8-amino-6-(4-methylpyridin-3-yl)-2,7-naphthyridin-3-ylamino)-1H-pyrazol-1-yl)-1-(oxetan-3-yl)piperidin-3-ol]",0.592
13,"COc1cc(-c2cc3cc(NC(=O)[C@@H]4C[C@@H]4F)ncc3c(N)n2)c(C)cn1 (racemic) [Compound 55, cis-N-(8-amino-6-(2-methoxy-5-methylpyridin-4-yl)-2,7-naphthyridin-3-yl)-2-fluorocyclopropanecarboxamide]",6.4
14,"Cc1ccncc1-c1cc2cc(NC(=O)[C@H]3[C@@H]4CCC(C#N)[C@@H]43)ncc2c(N)n1 (stereo partly drawn) [Compound 230, (1R,5R,6S)—N-(8-amino-6-(4-methylpyridin-3-yl)-2,7-naphthyridin-3-yl)-2-cyanobicyclo[3.1.0]hexane-6-carboxamide]",0.295
15,"CNc1cncc(-c2cc3cc(NC(=O)[C@@H]4C[C@@H]4F)ncc3c(N)n2)c1C (racemic) [Compound 216, (+/−)-cis-N-(8-amino-6-(4-methyl-5-(methylamino)pyridin-3-yl)-2,7-naphthyridin-3-yl)-2-fluorocyclopropanecarboxamide]",3.53
16,"Nc1nc(N2CCCC2CCO)cc2cc(NC(=O)[C@@H]3C[C@@H]3F)ncc12 (mixture of isomers) [Compound 54, (±)-cis-N-(8-amino-6-(2-(2-hydroxyethyl)pyrrolidin-1-yl)-2,7-naphthyridin-3-yl)-2-fluorocyclopropanecarboxamide]",48.9
17,"Cc1ccncc1-c1nc(N)c2cnc(NC(=O)[C@H]3C[C@@H]3CC#N)cc2c1Br (racemic) [Compound 210, (+/−)-N-(8-amino-5-bromo-6-(4-methylpyridin-3-yl)-2,7-naphthyridin-3-yl)-2-(cyanomethyl)cyclopropanecarboxamide]",0.258
18,"COc1ccc(Cn2cncc2[C@@H]2C[C@H]2C(=O)Nc2cc3cc(-c4cnccc4C)nc(N)c3cn2)cc1 (racemic) [Compound 145, (±)-trans-N-[8-amino-6-(4-methyl-3-pyridyl)-2,7-naphthyridin-3-yl]-2-[3-[(4-methoxyphenyl)methyl]imidazol-4-yl]cyclopropanecarboxamide]",2
19,"Cc1ccncc1-c1cc2cc(Nc3cc(C)n(CCO)n3)ncc2c(N)n1 [Compound 262, 2-(3-[[8-amino-6-(4-methylpyridin-3-yl)-2,7-naphthyridin-3-yl]amino]-5-methyl-1H-pyrazol-1-yl)ethan-1-ol]",0.439
20,"N#C[C@@H]1C[C@@H]1C(=O)Nc1cc2cc(-c3cncc4[nH]ccc34)nc(N)c2cn1 (racemic) [Compound 21, (±)-cis-N-(8-amino-6-(1H-pyrrolo[2,3-c]pyridin-4-yl)-2,7-naphthyridin-3-yl)-2-cyanocyclopropanecarboxamide]",2.76
21,"Cc1ccncc1-c1cc2cc(NC(=O)C3CC34CN(c3ncccc3C#N)C4)ncc2c(N)n1 (centres unmarked) [Compound 150, N-(8-amino-6-(4-methylpyridin-3-yl)-2,7-naphthyridin-3-yl)-5-(3-cyanopyridin-2-yl)-5-azaspiro[2.3]hexane-1-carboxamide]",0.77
22,"COCCN1CC[C@]2(C[C@H]2C(=O)Nc2cc3cc(-c4cnccc4C)nc(N)c3cn2)C1 (racemic) [Compound 127, (±)-trans-N-(8-amino-6-(4-methylpyridin-3-yl)-2,7-naphthyridin-3-yl)-5-(2-methoxyethyl)-5-azaspiro[2.4]heptane-1-carboxamide]",5.3
23,"CCS(=O)(=O)n1cc([C@H]2C[C@@H]2C(=O)Nc2cc3cc(-c4cnccc4C)nc(N)c3cn2)cn1 (racemic) [Compound 146, (±)-trans-N-[8-amino-6-(4-methyl-3-pyridyl)-2,7-naphthyridin-3-yl]-2-(1-ethylsulfonylpyrazol-4-yl)cyclopropanecarboxamide]",0.02
24,"Cc1c(N)cncc1-c1cc2cc(NC(=O)[C@@H]3C[C@H]3C#N)ncc2c(N)n1 (racemic) [Compound 165, (±)-trans-N-(8-amino-6-(5-amino-4-methylpyridin-3-yl)-2,7-naphthyridin-3-yl)-2-cyanocyclopropanecarboxamide]",0.95
25,"Cc1cc2[nH]c(=O)oc2cc1-c1cc2cc(NC(=O)C3C[C@H]3C#N)ncc2c(N)n1 (mixture of isomers) [Compound 135, (±)-((trans-)-N-(8-amino-6-(5-methyl-2-oxo-2,3-dihydrobenzo[d]oxazol-6-yl)-2,7-naphthyridin-3-yl)-2-cyanocyclopropanecarboxamide]",0.25
26,"Cc1ccncc1-c1cc2cc(NC(=O)NC(C)CO)ncc2c(N)n1 (racemic) [Compound 177, 1-(8-amino-6-(4-methylpyridin-3-yl)-2,7-naphthyridin-3-yl)-3-(1-hydroxypropan-2-yl)urea]",8.5
27,"Cc1ccncc1-c1cc2cc(NC(=O)[C@@H]3C[C@H]3C)ncc2c(N)n1 (racemic) [Compound 118, (±)-trans-N-(8-amino-6-(4-methylpyridin-3-yl)-2,7-naphthyridin-3-yl)-2-methylcyclopropane-1-carboxamide]",0.476
28,"Cc1ccncc1-c1cc2cc(NC(=O)[C@@H]3C[C@@H]3C(=O)N(C)C)ncc2c(N)n1 (racemic) [Compound 136, (±)-cis-N1-(8-amino-6-(4-methylpyridin-3-yl)-2,7-naphthyridin-3-yl)-N2,N2-dimethylcyclopropane-1,2-dicarboxamide]",130
29,"COCCN1CC[C@]2(C[C@@H]2C(=O)Nc2cc3cc(-c4cnccc4C)nc(N)c3cn2)C1 (racemic) [Compound 128, (±)-cis-N-(8-amino-6-(4-methylpyridin-3-yl)-2,7-naphthyridin-3-yl)-5-(2-methoxyethyl)-5-azaspiro[2.4]heptane-1-carboxamide]",2.5

# Same assay, conditions: Table B1-2, read-out: HPK1 Ki, L = Lanth
row,Structure (SMILES),Ki [nM]
1,"Cc1cc(-n2cccn2)ncc1-c1cc2cc(NC(=O)[C@H]3C[C@@H]3c3cnn(C)c3)ncc2c(N)n1 (single isomer, unassigned) [Compound 398]",30
2,"Cc1ccnc(Cc2ccccc2)c1-c1cc2cc(NC(=O)[C@@H]3C[C@H]3c3cnn(C)c3)ncc2c(N)n1 (single isomer, unassigned) [Compound 397]",0.25
3,"Cc1cc(-c2ccn(C)n2)ncc1-c1cc2cc(NC(=O)[C@H]3C[C@@H]3c3cnn(C)c3)ncc2c(N)n1 (single isomer, unassigned) [Compound 404]",1.9
